Data as given in article PMC12549899 (Nature Communications, 2025).
Values joined by “and” are separate entries in the source; they are usually repeats but may differ in a detail not shown here. Identical values can stand only once. Like-named read-outs stand apart in the source and are kept apart here.

Target: T1, DrOTOP1 G130W/A388W (Danio rerio, UniProt Q7ZWK8, A388W/G130W)
T1 construct: A previously generated codon-optimized full-length DrOTOP1[8]; (UniProt: Q7ZWK8) construct; expressed in transfected cells; host or cells: HEK-293 (CRL-1573, ATCC)
T1 sequence (Q7ZWK8 1-586 G130W/A388W): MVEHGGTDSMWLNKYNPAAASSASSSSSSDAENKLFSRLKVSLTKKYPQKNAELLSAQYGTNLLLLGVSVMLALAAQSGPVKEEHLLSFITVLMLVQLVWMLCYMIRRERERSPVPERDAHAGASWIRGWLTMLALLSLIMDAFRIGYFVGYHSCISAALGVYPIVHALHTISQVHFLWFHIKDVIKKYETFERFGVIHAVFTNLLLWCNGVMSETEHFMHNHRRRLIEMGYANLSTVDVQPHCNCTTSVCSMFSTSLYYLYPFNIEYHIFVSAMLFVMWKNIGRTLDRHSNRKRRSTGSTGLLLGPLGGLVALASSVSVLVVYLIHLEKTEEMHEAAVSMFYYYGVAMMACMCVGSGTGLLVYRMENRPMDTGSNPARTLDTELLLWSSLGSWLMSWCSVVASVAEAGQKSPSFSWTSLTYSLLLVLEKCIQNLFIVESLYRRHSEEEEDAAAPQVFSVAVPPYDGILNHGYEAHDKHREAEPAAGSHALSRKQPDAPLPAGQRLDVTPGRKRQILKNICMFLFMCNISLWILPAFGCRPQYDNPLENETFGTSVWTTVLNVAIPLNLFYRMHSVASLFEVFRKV
Assay: Whole-cell patch-clamp, inhibition of acid-evoked currents, DrOTOP1 G130W/A388W
Format: cell-based, zebrafish (Danio rerio)
Protocol: Given our limited success in identifying mutations of the central site that disrupt antagonism by C2.2, we tested whether mutations of the central site in a background of G130W (the most impactful outer site mutation) might unmask contributions of this site. Thus, we generated and tested double mutants of G130W with E384A, A274W, and A388W. […] We also measured the dose-dependence of inhibition by C2.2 for both G130W/A388W and G130W/E384A (Fig. 5I, J). […] G130W was tested in parallel to confirm that 100 and 300 μM C2.2 produced dose-dependent inhibition.
HEK-293 cells (CRL-1573, ATCC) were cultured in DMEM (Thermofisher 11995073) containing 10% fetal bovine serum (Life Technology 16000044) and Penicillin-Streptomycin (100 I.U./mL) and (100 µg/mL), respectively. Cells were transfected with WT DrOTOP1 or mutant DrOTOP1 channels in 35 mm petri dishes, with ~ 500 ng DNA and 2 μL TransIT-LT1 transfection reagent (Mirus Bio Corporation, Cat # MIR2300) following the manufacturer’s protocol. All constructs were subcloned into a pcDNA3.1 vector that adds an N-terminal fusion tag consisting of an octahistidine tag followed by eGFP, a Gly-Thr-Gly-Thr linker and a 3C protease cleavage site ([…]) followed by WT DrOTOP1, WT mOTOP1, WT hOTOP1, or mutated DrOTOP1. Point mutations were generated via In-Fusion Cloning (Takara) using single-stranded DNA primers generated through IDT and sequence confirmed by Sanger sequencing (GeneWiz).
Whole-cell patch-clamp recording was performed as previously described[6],[22],[25]. Recordings were made with an Axopatch 200B amplifier, digitized with a Digidata 1322a 16-bit data acquisition system, acquired with pClamp 8.2 and analyzed with Clampfit 10 (Molecular Devices). Recordings were sampled at 5 kHz and filtered at 1 kHz. Patch Pipettes with resistance of […] were fabricated from borosilicate glass, and only recordings with a giga-Ohm seal were used in analysis. Membrane potential was held at −80 mV for the duration of recordings. At the beginning of recordings and between, cells were washed with Tyrode’s solution (see below). Once a giga-Ohm seal was reached, cells were lifted and placed in front of microcapillary tubes controlled by a Fast-Step perfusion system (Warner Instruments) so that extracellular solutions could be rapidly exchanged during each experiment.
Standard Tyrode’s solution consisted of 145 mM NaCl, 5 mM KCl, MgCl2, 2 mM CaCl2, 20 mM D-Glucose, and 10 mM HEPES (for pH 7.4). All other extracellular patch-clamp solutions contained 160 mM NMDG-Cl, 2 mM CaCl2, and the following buffers: 10 mM HEPES (for pH 7.4), 10 mM MES (for pH 6.5-5.5), 10 mM CHES for pH 10, and 10 mM HomoPIPES for (pH 5.0). pH adjusted with HCl. When adding compounds to extracellular solutions, the concentration of DMSO in solution was never higher than 0.3%. The pipette contained intracellular solution made up of 120 mM Cs-aspartate, 15 mM CsCl, 2 mM Mg-ATP, 5 mM EGTA, 2.4 mM CaCl2 (100 nM free Ca^2+), and 10 mM HEPES with a pH of 7.3. All extracellular solution osmolarity was adjusted to 300 mOsm and intracellular osmolarity was adjusted to 290 mOsm.
All data are presented as mean ± SEM unless otherwise noted, and each data point represents an independent replicant. Inhibition of compounds was quantified as ((I2peak-I1)/(I2peak))*100, where I1 is the current immediately before wash-off and I2peak is the maximum recovered current (Supplementary Fig. 2). Hill coefficients were determined by the following equation: Y = Bmax*X^h/(Kd^h + X^h). Absolute IC50 was determined by the following equation: Fifty = (Top + Baseline)/2 Y = Bottom + (Top-Bottom)/(1 + ((Top-Bottom)/(Fifty-Bottom) − 1)*(AbsoluteIC50/X)^HillSlope). pH50 curves (Fig. 6G inset) were determined using the following equation: Y = Bottom + (Top-Bottom)/(1 + (EC/X)^HillSlope) where EC = EC50 control. Graphs with electrophysiological data were made in Graphpad Prism 10 (Graphpad Software Inc). […]

[1] = 100 µM, DrOTOP1 G130W/A388W, single cells

| SMILES | Inhibition of currents (10 µM, DrOTOP1 G130W/A388W, single cells or mean, mean) | Inhibition of currents (10 µM, DrOTOP1 G130W/A388W, single cells or mean, single cells) | HillSlope (DrOTOP1 G130W/A388W) | Reduction in sensitivity (IC50) compared with single mutant G130W (DrOTOP1 G130W/A388W) | IC50 (DrOTOP1 G130W/A388W, pH 5.5, read-out: IC50) | HillSlope (G130W/A388W, best-fit value) | LogAbsoluteIC50 (G130W/A388W, best-fit value) | IC50 (G130W/A388W, best-fit value, Top = 100, Bottom = 0, read-out: AbsoluteIC50) | Inhibition of currents [1] | inhibition at 100 µM [1] |
| --- | --- | --- | --- | --- | --- | --- | --- | --- | --- | --- |
| C=C(C)COc1ccccc1NC(=O)c1nc[nH]c1C [C2.2] | 1.543% | 2.216% and 2.459% and 1.638% and 1.737% and 0.722% and 0.4878% | 1.10 | 3 fold and ~ 3 fold | 397 µM | 1.1 | 2.599 | 397 µM | – | – |
| O=C(/C(=N\O)c1ccccc1)c1ccccc1 [C11, benzil monoxime] | – | – | – | – | – | – | – | – | 63.5701% and 65.9051% and 61.9048% and 72.4545% and 68.6192% | 63.1% |
